One test deals with Micrococcus flavus. As to conditions: M. flavus; 0.15 nmol per well; 30°C overnight. On the procedure: Agar well diffusion assay against Micrococcus flavus was performed as described previously ([van Heel et al., 2013]). 0.15 nmol of each sample was added to each well. The agar plate was incubated at 30°C overnight, after which the zone of inhibition was measured.
(§1) M. flavus was used as the indicator strain for the agar well diffusion assay, and 0.15 nmol of each sample was added to each well (Figure 3). […] Antimicrobial activity of all compounds was tested by growth inhibition assays against two clinically relevant Gram-positive pathogens, i.e., methicillin resistant S. aureus and vancomycin resistant E. faecium, as well as L. monocytogenes, and L. lactis. […] For this experiment, an activity test was performed against the NSR producing strain L. lactis NZ9000 (pNSR).

For test [1], the system named is L. lactis NZ9000 (pEmpty). Conditions: for MIC value, L. lactis NZ9000 (pEmpty): broth microdilution (Wiegand et al. 2008), samples in 0.05% acetic acid, strain with empty plasmid. On the procedure:
(§2) All samples were resuspended in 0.05% aqueous acetic acid solution and the peptide amount was quantified by HPLC according to Schmitt et al. ([Schmitt et al., 2019]). The indicator strains MW2-MRSA, Enterococcus faecium, Listeria monocytogenes, and Lactococcus lactis were first streaked on GM17 plate and cultured overnight. The peptide samples were diluted with 0.05% acetic acid to a concentration of 40–320 μM (depending on the estimated activity of the peptide and the strain tested). The MIC value test was performed according to [Wiegand et al. (2008)].
as §1

The subject of test [2] is Listeria monocytogenes LMG 10470. The protocol:
as §2, §1

Test [3] deals with Enterococcus faecium LMG 16003 (vancomycin resistant, VRE). On the procedure: as §2, §1
Test [4] has as its system MW2-MRSA (Staphylococcus aureus MW2, methicillin resistant). On the procedure: as §2, §1
The next test relates to L. lactis NZ9000 (pNSR). Conditions: for MIC against NZ9000 with vs without NSR production: L. lactis NZ9000 (pNSR) vs NZ9000 (pEmpty); for MIC value, L. lactis NZ9000 (pNSR): broth microdilution (Wiegand et al. 2008), strain expressing nisin resistance protein NSR. The protocol:
as §2, §1

[5] abbreviates: MW2- ( MW2, methicillin resistant).
[6] abbreviates: broth microdilution (Wiegand et al. 2008), samples in 0.05% acetic acid, quantified by HPLC.
The mark [7] stands for this setting: ratio of MICs vs nisin ABC + O6.

Experimental findings from publication PMC7715017, “Conjugation of Synthetic Polyproline Moietes to Lipid II Binding Fragments of Nisin Yields Active and Stable Antimicrobials” (Frontiers in Microbiology, 2020) are described below.

≈ marks a conversion by molar mass, not a printed value. Where two headings read alike, the source gives them in different places.

With `C=C1NC(=O)[C@H]([C@@H](C)CC)NC(=O)[C@H](NC(=O)/C(=C/C)NC(=O)[C@@H](N)[C@@H](C)CC)CSC[C@@H](C(=O)N[C@H]2C(=O)N3CCC[C@H]3C(=O)NCC(=O)N[C@H](C(=O)N[C@@H](CCCCN)C(=O)NCCCn3cc(CCC(=O)N4[C@H](C(=O)N5[C@H](C(=O)N6[C@H](C(=O)N7[C@H](C(=O)N8[C@H](C(=O)N9[C@H](C(=O)N[C@@H](CCCCN)C(=O)N[C@@H](CCCCN)C(=O)N[C@@H](CCCCN)C(=O)O)C[C@@H]%10CCCC[C@@H]%109)C[C@@H]9CCCC[C@@H]98)C[C@@H]8CCCC[C@@H]87)C[C@@H]7CCCC[C@@H]76)C[C@@H]6CCCC[C@@H]65)C[C@@H]5CCCC[C@@H]54)nn3)CS[C@H]2C)NC(=O)[C@H](CC(C)C)NC1=O` [Nisin AB + O6K3], in the test with Micrococcus flavus, the “Antimicrobial activity (zone of inhibition) in agar well diffusion assay” value is reported as “the only active one”. Further, the “MIC value, L. lactis NZ9000 (pEmpty)” value in test [1] was 10 μM.

For `C=C1NC(=O)[C@H]([C@@H](C)CC)NC(=O)[C@H](NC(=O)/C(=C/C)NC(=O)[C@@H](N)[C@@H](C)CC)CSC[C@@H](C(=O)N[C@H]2C(=O)N3CCC[C@H]3C(=O)NCC(=O)N[C@H](C(=O)N[C@@H](CCCCN)C(=O)O)CS[C@H]2C)NC(=O)[C@H](CC(C)C)NC1=O` [Nisin AB, reference compound], the “Antimicrobial activity (zone of inhibition) in agar well diffusion assay” value in the test on Micrococcus flavus is reported as “not active alone”. Further, in test [2] (LMG 10470), the “MIC value, L. monocytogenes” value is over 320 µM. In addition, in test [3] (LMG 16003), the “MIC value, E. faecium” value was determined as 160 µM (≈ 184 µg/mL). The “MIC value, L. lactis NZ9000 (pEmpty)” value in test [1] is over 40 μM. Also, the “MIC value, MW2-MRSA” value in test [4] (setting [5]) was over 320 µM.

As to `C=C1NC(=O)[C@H]([C@@H](C)CC)NC(=O)[C@H](NC(=O)/C(=C/C)NC(=O)[C@@H](N)[C@@H](C)CC)CSC[C@@H](C(=O)N[C@H]2C(=O)N3CCC[C@H]3C(=O)NCC(=O)N[C@H](C(=O)N[C@@H](CCCCN)C(=O)N[C@H]3C(=O)NCC(=O)N[C@@H](C)C(=O)N[C@@H](CC(C)C)C(=O)N[C@@H](CCSC)C(=O)NCC(=O)N[C@H](C(=O)N[C@@H](CC(N)=O)C(=O)NCCCn4cc(CCC(=O)N5[C@H](C(=O)N6[C@H](C(=O)N7[C@H](C(=O)N[C@@H](CCCCN)C(=O)N[C@@H](CCCCN)C(=O)N[C@@H](CCCCN)C(=O)O)C[C@@H]8CCCC[C@@H]87)C[C@@H]7CCCC[C@@H]76)C[C@@H]6CCCC[C@@H]65)nn4)CS[C@H]3C)CS[C@H]2C)NC(=O)[C@H](CC(C)C)NC1=O` [Nisin ABC + O3K3], in the test on Micrococcus flavus, the “Antimicrobial activity (zone of inhibition) in agar well diffusion assay” value is reported as “considerably higher than that of nisin ABC”. In addition, the “MIC value, L. monocytogenes” value in test [2] (LMG 10470) turned out to be 80 µM. For the same compound, the “MIC value, E. faecium” value in test [3] (LMG 16003) came out at 40 µM. For the same compound, in test [1], the “MIC value, L. lactis NZ9000 (pEmpty)” value stood at 2.5 μM. For the same compound, in test [4] (setting [5]), the “MIC value, MW2-MRSA” value stood at 80 µM.

Consider `C=C1NC(=O)[C@H]([C@@H](C)CC)NC(=O)[C@H](NC(=O)/C(=C/C)NC(=O)[C@@H](N)[C@@H](C)CC)CSC[C@@H](C(=O)N[C@H]2C(=O)N3CCC[C@H]3C(=O)NCC(=O)N[C@H](C(=O)N[C@@H](CCCCN)C(=O)N[C@H]3C(=O)NCC(=O)N[C@@H](C)C(=O)N[C@@H](CC(C)C)C(=O)N[C@@H](CCSC)C(=O)NCC(=O)N[C@H](C(=O)N[C@@H](CC(N)=O)C(=O)NCCCn4cc(CCC(=O)N5[C@H](C(=O)N6[C@H](C(=O)N7[C@H](C(=O)N8[C@H](C(=O)N9[C@H](C(=O)N%10[C@H](C(=O)N[C@@H](CCCCN)C(=O)N[C@@H](CCCCN)C(=O)N[C@@H](CCCCN)C(=O)O)C[C@@H]%11CCCC[C@@H]%11%10)C[C@@H]%10CCCC[C@@H]%109)C[C@@H]9CCCC[C@@H]98)C[C@@H]8CCCC[C@@H]87)C[C@@H]7CCCC[C@@H]76)C[C@@H]6CCCC[C@@H]65)nn4)CS[C@H]3C)CS[C@H]2C)NC(=O)[C@H](CC(C)C)NC1=O` [Nisin ABC + O6K3], for which the “MIC value, L. monocytogenes” value in test [2] (setting [6]) is 10 µM. Moreover, the “Decrease of antimicrobial activity compared to full nisin, L. monocytogenes” value in test [2] (ratio of MICs vs nisin) is 4 fold. For the same compound, the “Increase of antimicrobial activity compared to nisin ABC, L. monocytogenes” value in test [2] (ratio of MICs vs nisin ABC) came out at 4 fold. Also, the “Increase of antimicrobial activity compared to nisin ABC + O6, L. monocytogenes” value in test [2] (setting [7]) was “twice”. The “MIC value, E. faecium” value in test [3] (setting [6]) was determined as 2.5 µM. In test [3] (ratio of MICs vs nisin), the “Decrease of antimicrobial activity compared to full nisin, E. faecium” value was 8 fold. In addition, in test [3] (ratio of MICs vs nisin ABC), the “Increase of antimicrobial activity compared to nisin ABC, E. faecium” value worked out at 16 fold. Besides, the “Increase of antimicrobial activity compared to nisin ABC + O6, E. faecium” value in test [3] (setting [7]) is “twice”. In the test with L. lactis NZ9000 (pNSR), the “MIC against NZ9000 with vs without NSR production” value is “identical MICs” and the “MIC value, L. lactis NZ9000 (pNSR)” value is 2.5 μM. Besides, the “MIC value, L. lactis NZ9000 (pEmpty)” value in test [1] was 2.5 μM. For the same compound, in test [1] (ratio of MICs vs nisin ABC), the “Increase of antimicrobial activity compared to nisin ABC, L. lactis” value came to 2 fold. Also, the “Increase of antimicrobial activity compared to nisin ABC + O6, L. lactis” value in test [1] (setting [7]) was “twice”. Moreover, the “MIC value, MW2-MRSA” value in test [4] (setting [6]) was 80 µM.

`C=C1NC(=O)[C@H]([C@@H](C)CC)NC(=O)[C@H](NC(=O)/C(=C/C)NC(=O)[C@@H](N)[C@@H](C)CC)CSC[C@@H](C(=O)N[C@H]2C(=O)N3CCC[C@H]3C(=O)NCC(=O)N[C@H](C(=O)N[C@@H](CCCCN)C(=O)N[C@H]3C(=O)NCC(=O)N[C@@H](C)C(=O)N[C@@H](CC(C)C)C(=O)N[C@@H](CCSC)C(=O)NCC(=O)N[C@H](C(=O)N[C@@H](CC(N)=O)C(=O)NCCCn4cc(CCC(=O)N5[C@H](C(=O)N6[C@H](C(=O)N7[C@H](C(=O)N8[C@H](C(=O)N9[C@H](C(=O)N%10[C@H](C(=O)O)C[C@@H]%11CCCC[C@@H]%11%10)C[C@@H]%10CCCC[C@@H]%109)C[C@@H]9CCCC[C@@H]98)C[C@@H]8CCCC[C@@H]87)C[C@@H]7CCCC[C@@H]76)C[C@@H]6CCCC[C@@H]65)nn4)CS[C@H]3C)CS[C@H]2C)NC(=O)[C@H](CC(C)C)NC1=O` [Nisin ABC + O6]: the “MIC value, L. monocytogenes” value in test [2] (LMG 10470) is 20 µM. The “MIC value, E. faecium” value in test [3] (LMG 16003) came to 5 µM. Further, in the test with L. lactis NZ9000 (pNSR), the “MIC against NZ9000 with vs without NSR production” value was “identical MICs” and the “MIC value, L. lactis NZ9000 (pNSR)” value is 5.0 μM. Besides, the “MIC value, L. lactis NZ9000 (pEmpty)” value in test [1] amounted to 5.0 μM. In addition, in test [4] (setting [5]), the “MIC value, MW2-MRSA” value amounted to 80 µM.
